Experimental data from US20110282028A1, “METHOD FOR IDENTIFYING INHIBITORS OF LIPOTEICHOIC ACID SYNTHASE” (UNIVERSITY OF NEWCASTLE UPON TYNE, priority 2008, published 2011).

Legend:
Format in all cases: cell-based, B. subtilis
[1] = test system: ltaS mutant (strain 4286); test: Sensitivity to cations, dilutions spotted on NA plates, ltaS mutant; conditions: 37° C.
Experimental: (§1) FIG. 3—Effect of metal ion concentration of viability of wild-type and ltaS mutants: A. Growth of wild-type (168) and ltaS mutant (strain 4286) at 37° C. in on NA plates without additives (left), containing 0.5 mM Mg^2+ (middle) or with addition of 0.05 mM Mn^2+ (right). B. Growth of ltaS mutant (strain 4283, left) and wild-type (strain 168, right) on minimal medium plates containing 10, 100 and 500 μM Mg^2+ as indicated.
(§2) Liquid cultures of B. subtilis strains were grown in Difco Antibiotic Medium 3 (PAB), CH medium (Nicholson & Setlow, 1990), or S-medium (Karamata & Gross, 1970) at 37° C. Nutrient agar (Oxoid) plates were used for growth on solid medium, Modified Salts Medium plates with defined Mg^2+ concentrations were prepared as described previously (Carballido-López et al., 2006). The given concentration of Mg^2+ was achieved by addition of MgSO4 to the medium. DNA manipulations and B. subtilis strains were transformed according to the method of Anagnostopoulos and Spizizen (1961) as modified by Jenkinson (1983). Selection for B. subtilis transformants was carried out on nutrient agar (Oxoid), supplemented with antibiotics, as required, with: kanamycin ([…]) chloramphenicol ([…]), erythromycin ([…] ml^−1), lincomycin ([…] ml^−1) and/or spectinomycin ([…]). […]

[2] = test system: wild-type (168); test: Sensitivity to cations, dilutions spotted on NA plates, wild-type; conditions: 0.05 mM MnSO4 added to nutrient agar (NA), 37° C.
Experimental: as §1, §2

[3] = test system: ltaS mutant; test: Zone of inhibition on solid medium, ltaS mutant compared with wild-type; conditions: data not shown
Source text: (§3) In the process of constructing the deletion strain, we noticed that the ltaS mutant was also hyper-sensitive to various antibiotics and lysozyme. […] In other experiments on solid medium the zone of inhibition of all antibiotics tested (kanamycin, ampicillin, vancomycin, penicillin, spectinomycin, erythromycin, lincomycin, carbenicillin) was wider for the ltaS mutant than for the wild-type (not shown). […] The general increase in sensitivity of the mutant to antibiotics and lysozyme is consistent with the notion that LTA also provides a protective layer that restricts the access of many bioactive agents to sensitive sites in the cell envelope.

[4] = test system: ltaS mutant; test: Susceptibility of ltaS mutant to lysozyme; conditions: data not shown
Source text: as §3

Row | Molecule | zone of inhibition for the ltaS mutant versus the wild-type [3] | other results
1 | O=S(=O)([O-])[O-].[Mg+2] [Mg^2+, MgSO4] |  | growth of the ltaS mutant ([1]; 0.5 mM Mg^2+ added to nutrient agar (NA)): no effect
2 | O=S(=O)([O-])[O-].[Mn+2] [MnSO4] |  | growth of the ltaS mutant ([1]; 0.05 mM MnSO4 added to nutrient agar (NA)): abolished growth; growth of the wild-type [2]: unaffected
3 | CC1(C)S[C@@H]2[C@H](NC(=O)[C@H](N)c3ccccc3)C(=O)N2[C@H]1C(=O)O [ampicillin] | wider | 
4 | CC1(C)S[C@@H]2[C@H](NC(=O)C(C(=O)O)c3ccccc3)C(=O)N2[C@H]1C(=O)O (some centres unmarked) [carbenicillin] | wider | 
5 | CC[C@H]1OC(=O)[C@H](C)[C@@H](O[C@H]2C[C@@](C)(OC)[C@@H](O)[C@H](C)O2)[C@H](C)[C@@H](O[C@@H]2O[C@H](C)C[C@H](N(C)C)[C@H]2O)[C@](C)(O)C[C@@H](C)C(=O)[C@H](C)[C@@H](O)[C@]1(C)O [erythromycin] | wider | 
6 | CCC[C@@H]1C[C@@H](C(=O)N[C@@H]([C@H]2O[C@H](SC)[C@H](O)[C@@H](O)[C@H]2O)[C@@H](C)O)N(C)C1 [lincomycin] | wider | 
7 | CN[C@@H]1[C@H](O)[C@H](NC)[C@H]2O[C@@]3(O)C(=O)C[C@@H](C)O[C@H]3O[C@@H]2[C@H]1O [spectinomycin] | wider | 
8 | CN[C@H](CC(C)C)C(=O)N[C@H]1C(=O)N[C@@H](CC(N)=O)C(=O)N[C@H]2C(=O)N[C@H]3C(=O)N[C@H](C(=O)N[C@H](C(=O)O)c4cc(O)cc(O)c4-c4cc3ccc4O)[C@H](O)c3ccc(c(Cl)c3)Oc3cc2cc(c3O[C@@H]2O[C@H](CO)[C@@H](O)[C@H](O)[C@H]2O[C@H]2C[C@](C)(N)[C@H](O)[C@H](C)O2)Oc2ccc(cc2Cl)[C@H]1O [vancomycin] | wider | 
9 | lysozyme |  | susceptibility of the ltaS mutant to lysozyme [4]: increased susceptibility
10 | penicillin | wider | 
